What was measured:
soybean = test: Test B pre/postemergence soybean; type: in vivo, Glycine max
Summary of the method: (§1)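 Test chemicals in a non-phytotoxic solvent mixture with surfactant were sprayed preemergence onto planted seeds and postemergence onto plants 2 to 18 cm tall (1- to 4-leaf stage). After twelve to sixteen days in a greenhouse, injury was visually rated against untreated controls from 0 (no effect) to 10 (complete control).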

wild oat = test: Test B pre/postemergence wild oat; type: in vivo, Avena fatua
Summary of the method: as §1

corn = test: Test B pre/postemergence corn; type: in vivo, Zea mays
Summary of the method: as §1

blackgrass = test: Test B pre/postemergence blackgrass; type: in vivo, Alopecurus myosuroides
Summary of the method: as §1

sugar beet = test: Test B pre/postemergence sugar beet; type: in vivo, Beta vulgaris
Summary of the method: as §1

purple nutsedge = test: Test B pre/postemergence purple nutsedge; type: in vivo, Cyperus rotundus
Summary of the method: as §1

wheat = test: Test B pre/postemergence wheat; type: in vivo, Triticum aestivum
Summary of the method: as §1

surinam grass = test: Test B pre/postemergence surinam grass; type: in vivo, Brachiaria decumbens
Summary of the method: as §1

bedstraw = test: Test B pre/postemergence bedstraw; type: in vivo, Galium aparine
Summary of the method: as §1

cocklebur = test: Test B pre/postemergence cocklebur; type: in vivo, Xanthium strumarium
Summary of the method: as §1

rice = test: Test B flood test rice; type: in vivo, Oryza sativa
Summary of the method: (§2)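 Read-out is a visual response score from 0 (no effect) to 10 (complete control), assigned by comparison with untreated controls. Treatment was applied at the 2-leaf stage, and plants stayed in the greenhouse for twelve to sixteen days before scoring.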

duck salad = test: Test B flood test duck salad; type: in vivo, Heteranthera limosa
Summary of the method: as §2

smallflower flatsedge = test: Test B flood test smallflower flatsedge; type: in vivo, Cyperus difformis
Summary of the method: as §2

crabgrass = test: Test B pre/postemergence crabgrass; type: in vivo, Digitaria sanguinalis
Summary of the method: as §1

velvetleaf = test: Test B pre/postemergence velvetleaf; type: in vivo, Abutilon theophrasti
Summary of the method: as §1

bamyardgrass = test: Test B flood test barnyardgrass; type: in vivo, Echinochloa crus-galli
Summary of the method: as §2

[1] = Preemergence, Rate 62 g/ha, scale of 0 to 10 where 0 is no effect and 10 is complete control
[2] = Preemergence, Rate 250 g/ha, scale of 0 to 10 where 0 is no effect and 10 is complete control
[3] = Preemergence, Rate 500 g/ha, scale of 0 to 10 where 0 is no effect and 10 is complete control
[4] = Rate 62 g/ha, Postemergence, scale 0 to 10 (0 no effect, 10 complete control)
[5] = Rate 125 g/ha, Postemergence, scale of 0 to 10 where 0 is no effect and 10 is complete control
[6] = Rate 250 g/ha, Postemergence, scale of 0 to 10 where 0 is no effect and 10 is complete control
[7] = Rate 500 g/ha, Postemergence, scale 0 to 10, 0 no effect, 10 complete control
[8] = Rate 62 g/ha, headed Pre-emergence (flood test species), scale 0 to 10 (0 no effect, 10 complete control)
[9] = Rate 125 g/ha, Pre-emergence, flood test species, scale 0 to 10 where 0 is no effect and 10 is complete control
[10] = Rate 250 g/ha, Pre-emergence, flood-test species, scale 0 to 10, 0 is no effect, 10 is complete control
[11] = Rate 500 g/ha, Pre-emergence, flood test species, scale 0 to 10 (0 no effect, 10 complete control)

Structure (SMILES): CC(C)N(C(=O)n1oc(=O)n(Cc2ccccc2-c2ccccc2)c1=O)c1ccc(F)cc1 [Compound 313]
- Soybean plant response rating (soybean; [1]): 0
- Soybean plant response rating (0 to 10 scale) (soybean; Preemergence, Rate 125 g/ha): 0
- Soybean plant response rating (soybean; [2]): 0
- Soybean plant response rating (soybean; [3]): 0
- Soybean plant response rating (soybean; [4]): 1
- Soybean plant response rating (soybean; [5]): 2
- Plant response rating, Soybean (soybean; [6]): 3
- Wild oats plant response rating (wild oat; [1]): 0
- Wild oats plant response rating (0 to 10 scale) (wild oat; Preemergence, Rate 125 g/ha): 0
- Wild oats plant response rating (wild oat; [2]): 0
- Wild oats plant response rating (wild oat; [3]): 0
- Wild oats plant response rating (wild oat; [4]): 0
- Wild oats plant response rating (wild oat; [5]): 0
- Plant response rating, Wild oats (wild oat; [6]): 0
- Corn plant response rating (corn; [1]): 0
- Corn plant response rating (0 to 10 scale) (corn; Preemergence, Rate 125 g/ha): 0
- Corn plant response rating (corn; [2]): 0
- Corn plant response rating (corn; [3]): 0
- Corn plant response rating (corn; [4]): 0
- Corn plant response rating (corn; [5]): 0
- Plant response rating, Corn (corn; [6]): 0
- Corn plant response rating (corn; [7]): 0
- Blackgrass plant response rating (blackgrass; [1]): 0
- Blackgrass plant response rating (0 to 10 scale) (blackgrass; Preemergence, Rate 125 g/ha): 0
- Blackgrass plant response rating (blackgrass; [2]): 0
- Blackgrass plant response rating (blackgrass; [3]): 0
- Blackgrass plant response rating (blackgrass; [4]): 0
- Blackgrass plant response rating (blackgrass; [5]): 0
- Plant response rating, Blackgrass (blackgrass; [6]): 0
- Blackgrass plant response rating (blackgrass; [7]): 0
- Sugarbeets plant response rating (sugar beet; [1]): 0
- Sugarbeets plant response rating (0 to 10 scale) (sugar beet; Preemergence, Rate 125 g/ha): 0
- Sugarbeets plant response rating (sugar beet; [2]): 0
- Sugarbeets plant response rating (sugar beet; [3]): 0
- Sugarbeets plant response rating (sugar beet; [4]): 0
- Sugarbeets plant response rating (sugar beet; [5]): 0
- Plant response rating, Sugarbeets (sugar beet; [6]): 0
- Nutsedge plant response rating (purple nutsedge; [1]): 0
- Nutsedge plant response rating (0 to 10 scale) (purple nutsedge; Preemergence, Rate 125 g/ha): 0
- Nutsedge plant response rating (purple nutsedge; [2]): 0
- Nutsedge plant response rating (purple nutsedge; [3]): 0
- Nutsedge plant response rating (purple nutsedge; [4]): 0
- Nutsedge plant response rating (purple nutsedge; [5]): 0
- Plant response rating, Nutsedge (purple nutsedge; [6]): 0
- Wheat plant response rating (wheat; [1]): 0
- Wheat plant response rating (0 to 10 scale) (wheat; Preemergence, Rate 125 g/ha): 0
- Wheat plant response rating (wheat; [2]): 0
- Wheat plant response rating (wheat; [3]): 0
- Wheat plant response rating (wheat; [4]): 0
- Wheat plant response rating (wheat; [5]): 0
- Plant response rating, Wheat (wheat; [6]): 0
- B. signalgrass plant response rating (surinam grass; [1]): 0
- B. signalgrass plant response rating (0 to 10 scale, 0 is no effect, 10 is complete control) (surinam grass; Preemergence, Rate 125 g/ha): 0
- B. signalgrass plant response rating (surinam grass; [2]): 0
- B. signalgrass plant response rating (surinam grass; [3]): 0
- B. signalgrass plant response rating (surinam grass; [4]): 0
- B. signalgrass plant response rating (surinam grass; [5]): 0
- Plant response rating, B. signalgrass (surinam grass; [6]): 0
- B. signalgrass plant response rating (surinam grass; [7]): 0
- Bedstraw plant response rating (bedstraw; [1]): 0
- Bedstraw plant response rating (bedstraw; [2]): 0
- Bedstraw plant response rating (bedstraw; [3]): 0
- Bedstraw plant response rating (bedstraw; [4]): 5
- Bedstraw plant response rating (bedstraw; [5]): 7
- Plant response rating, Bedstraw (bedstraw; [6]): 7
- Cocklebur plant response rating (cocklebur; [1]): 0
- Cocklebur plant response rating (0 to 10 scale) (cocklebur; Preemergence, Rate 125 g/ha): 0
- Cocklebur plant response rating (cocklebur; [2]): 0
- Cocklebur plant response rating (cocklebur; [3]): 0
- Cocklebur plant response rating (cocklebur; [4]): 0
- Cocklebur plant response rating (cocklebur; [5]): 0
- Plant response rating, Cocklebur (cocklebur; [6]): 0
- Cocklebur plant response rating (cocklebur; [7]): 0
- Rice plant response rating (rice; [8]): 0
- Rice plant response rating (rice; [9]): 0
- Rice plant response rating (rice; [10]): 0
- Rice plant response rating (rice; [11]): 0
- Ducksalad plant response rating (duck salad; [8]): 0
- Ducksalad plant response rating (duck salad; [9]): 0
- Ducksalad plant response rating (duck salad; [10]): 0
- Ducksalad plant response rating (duck salad; [11]): 0
- S. Flatsedge plant response rating (smallflower flatsedge; [8]): 0
- S. Flatsedge plant response rating (smallflower flatsedge; [9]): 0
- S. Flatsedge plant response rating (smallflower flatsedge; [10]): 0
- S. Flatsedge plant response rating (smallflower flatsedge; [11]): 0
- Crabgrass plant response rating (crabgrass; [1]): 0
- Crabgrass plant response rating (0 to 10 scale) (crabgrass; Preemergence, Rate 125 g/ha): 0
- Crabgrass plant response rating (crabgrass; [2]): 0
- Crabgrass plant response rating (crabgrass; [3]): 0
- Crabgrass plant response rating (crabgrass; [4]): 0
- Crabgrass plant response rating (crabgrass; [5]): 0
- Plant response rating, Crabgrass (crabgrass; [6]): 0
- Velvetleaf plant response rating (velvetleaf; [1]): 0
- Velvetleaf plant response rating (0 to 10 scale) (velvetleaf; Preemergence, Rate 125 g/ha): 0
- Velvetleaf plant response rating (velvetleaf; [2]): 0
- Velvetleaf plant response rating (velvetleaf; [3]): 0
- Velvetleaf plant response rating (velvetleaf; [4]): 0
- Velvetleaf plant response rating (velvetleaf; [5]): 0
- Plant response rating, Velvetleaf (velvetleaf; [6]): 0
- Barnyardgrass plant response rating (bamyardgrass; [8]): 0
- Barnyardgrass plant response rating (bamyardgrass; [9]): 0
- Barnyardgrass plant response rating (bamyardgrass; [10]): 0
- Barnyardgrass plant response rating (bamyardgrass; [11]): 0
